Experimental data taken from patent publication US9012200B2, “Composition of bacterial strains, bioremediation mixture and use of this composition for the removal of contaminants from the soil and the method for purifying the soil contaminants” (priority 2012, dated 2015).
Like-named read-outs stand apart in the source and are kept apart here.

Columns and labels:
[1] = test system: model strain Escherichia coli; conditions: according to Spain, 2003; cited from earlier work
[2] = test system: Stenotrophomonas sp. strain 5L; format: cell-based
[3] = test system: Brevundimonas sp. strain 2N; format: cell-based
[4] = test system: Stenotrophomonas sp. strain 2L; format: cell-based
[5] = test system: Brevundimonas sp. strain 5N; format: cell-based
[6] = test system: investigated strains of bacteria; format: cell-based
[7] = test system: Brevundimonas sp. strain 6N; format: cell-based
[8] = test system: Arthrobacter sp. strain 1N; format: cell-based
[9] = test system: Achromobacter sp. strain 4P; format: cell-based
[10] = test system: Pseudomonas sp. strain 4G; format: cell-based
[11] = test system: Stenotrophomonas sp. strain 6L; format: cell-based
[12] = test system: Stenotrophomonas sp. strain 3N; format: cell-based
[13] = test system: Pseudomonas sp. strain 3G; format: cell-based

Row | Compound | MIC [1] | MIC threshold values of heavy metals [2] | MIC threshold values of heavy metals [3] | MIC threshold values of heavy metals [4] | MIC threshold values of heavy metals [5] | Susceptibility of the investigated strains to the heavy metal [6] | MIC threshold values of heavy metals [7] | MIC threshold values of heavy metals [8] | MIC threshold values of heavy metals [9] | MIC threshold values of heavy metals ([10]; 24 h) | MIC threshold values of heavy metals [11] | MIC threshold values of heavy metals [12] | MIC threshold values of heavy metals ([13]; 24 h) | MIC threshold values of heavy metals ([10]; 48 h) | other results
1 | O=S(=O)([O-])[O-].[Zn+2] [Zn(II), Zinc sulphate] | 1 mM/L | 4(5) mM/L | 3(4) mM/L | 3(4) mM/L | 2(4) mM/L | resistant | 2(3) mM/L | 4 mM/L | 3(5) mM/L | 4 mM/L | 4(5) mM/L | 3(4) mM/L | 4 mM/L |  | 
2 | Sodium arsenite [As (III)] | 0.5 mM/L | 5(7) mM/L | 5(7) mM/L | 4(6) mM/L | 4(7) mM/L | resistant | 4(7) mM/L | 5(8) mM/L | 5(6) mM/L | 5 mM/L | 5(7) mM/L | 3(5) mM/L | 5 mM/L | 8 mM/L | 
3 | O=S(=O)([O-])[O-].[Cu+2] [Cu(II), Copper sulphate] | 1 mM/L | 3 mM/L | 3(4) mM/L | 3 mM/L | 3(4) mM/L | resistant | 3(4) mM/L | 3 mM/L | 3 mM/L | 3 mM/L | 3(4) mM/L | 3(4) mM/L | 3 mM/L | 4 mM/L | 
4 | [Cl][Ni][Cl] [Ni(II), Nickel chloride] | 1 mM/L |  |  |  |  |  |  |  |  | 1 mM/L |  |  | 1 mM/L | 2 mM/L | MIC threshold values of heavy metals ([2]; strain 5L, 24 h): 1 mM/L; MIC threshold values of heavy metals ([3]; strain 2N, 24 h): 1 mM/L; MIC threshold values of heavy metals ([3]; strain 2N, 48 h): 2 mM/L; MIC threshold values of heavy metals ([4]; strain 2L, 24 h): 1 mM/L; MIC threshold values of heavy metals ([5]; strain 5N, 24 h): 1 mM/L; Susceptibility of the investigated strains to the heavy metal ([6]; compared with literature data for the model strain): semi-susceptible; MIC threshold values of heavy metals ([7]; strain 6N, 24 h): 1 mM/L; MIC threshold values of heavy metals ([7]; strain 6N, 48 h): 2 mM/L; MIC threshold values of heavy metals ([8]; strain 1N, 24 h): 1 mM/L; MIC threshold values of heavy metals ([8]; strain 1N, 48 h): 2 mM/L; MIC threshold values of heavy metals ([9]; strain 4P, 24 h): 1 mM/L; MIC threshold values of heavy metals ([11]; strain 6L, 24 h): 1 mM/L; MIC threshold values of heavy metals ([11]; strain 6L, 48 h): 2 mM/L; MIC threshold values of heavy metals ([12]; strain 3N, 24 h): 1 mM/L; MIC threshold values of heavy metals ([12]; strain 3N, 48 h): 2 mM/L; MIC threshold values of heavy metals ([13]; 48 h): 2 mM/L
